Measured values as given in patent US20260021061A1, “ARIADNE AND ANALOGS FOR THE TREATMENT OF NEUROLOGICAL AND NEUROMUSCLAR DISORDERS” (priority 2022, published 2026).

How the values were obtained:
[1] = tested on: auxilin knockout (KO) mice; assay: Hind limb clasping in auxilin KO mouse model of Parkinson's Disease; type: in vivo; conditions: Aux-KO mice; 10 mg/kg intraperitoneal; 15 to 30 minutes after treatment
Source text: (§1) R-Ariadne ameliorates motor abnormalities in a mouse model of Parkinson's Disease. In the 1978 patent from the Bristol Laboratories, the inventors noted complete remission of Parkinson's symptoms in two patients (Partyka el al., U.S. Pat. No. 4,105,695, 1978). To address and examine these claims via reverse translation in mice, we used a novel model of PD based on auxilin knockout (KO) mice (Vidyadhara et al., 2022). Auxilin is a clathrin uncoating protein that participates in clathrin mediated endocytosis of synaptic vesicles (SV), enabling SV recycling and neurotransmission (Vidyadhara et al., 2022). Loss-of-function mutations in auxilin (DNAJC6/PARK19) cause PD. Auxilin KO mice display cardinal features of PD such as progressive motor deficits, nigral dopaminergic neuronal loss, α-synuclein pathology, and neuroinflammation. 9-12 month old Aux-KO mice were previously shown to respond to L-DOPA treatment, which ameliorated PD-like motor abnormalities (Vidyadhara et al., 2022). […] The balance beam test evaluates fine motor skills such as ability to walk on a raised narrow beam to reach a safety box, measured as a number of runs/minute and time taken to cross the beam (FIGS. 9-10). […]

5-HT1F receptor = 5-HT1F receptor (Homo sapiens, UniProt P30939); assay: 5-HTome G protein activation BRET assay
Chain of 5-HT1F receptor (P30939 whole entry): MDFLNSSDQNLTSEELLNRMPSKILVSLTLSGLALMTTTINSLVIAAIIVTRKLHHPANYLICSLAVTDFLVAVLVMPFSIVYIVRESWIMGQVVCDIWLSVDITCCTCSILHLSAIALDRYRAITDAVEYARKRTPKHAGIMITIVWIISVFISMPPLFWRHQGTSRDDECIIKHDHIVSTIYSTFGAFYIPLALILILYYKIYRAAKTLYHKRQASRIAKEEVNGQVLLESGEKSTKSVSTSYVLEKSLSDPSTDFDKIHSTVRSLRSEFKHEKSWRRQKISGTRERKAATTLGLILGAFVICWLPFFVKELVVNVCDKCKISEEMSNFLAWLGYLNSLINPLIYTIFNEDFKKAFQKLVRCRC
Description: All BRET assays were conducted using BRET2 in HEK293T cells (ATCC CRL-11268; mycoplasma-free), which were subcultured in high-glucose DMEM (VWR) supplemented with 10% FBS (Life Technologies).
Constructs in G protein-dissociation BRET assays were derived from the codon-optimized Tango pcDNA3.1 library (Addgene) with V2tail/TEV/tTA encoding regions deleted to yield “de-Tango” constructs. […] All Gα-Rluc8, Beta, and GFP2-γ constructs were derived from the TRUPATH pcDNA5/FRT/TO library (Addgene). […]
On the day of the assay, plates were decanted and 20 uL of drug buffer per well (1×HBSS, 20 mM HEPES, pH 7.4) was added using a Multidrop (ThermoFisher Scientific), and plates were allowed to equilibrate at 37° C. in a humidified incubator before receiving drug stimulation. […] Before reading, addition of coelenterazine 400a (5 uM final concentration; Nanolight Technology) was performed by the [sequence]. Immediately after, plates were read at 400 nm Rluc and fluorescent GFP2 emission at 510 nm for BRET2 at 0.8 second per well using a PheraStarFSX (BMB Lab Tech).
The BRET ratios of 510/400 luminescence were calculated per well and were plotted as a function of drug concentration using Graphpad Prism 5 or 9 (Graphpad Software Inc., San Diego, CA). […]

[2] = tested on: auxilin knockout (KO) mice; assay: Open field test in auxilin KO mouse model of Parkinson's Disease; type: in vivo; conditions: Aux-KO mice; 10 mg/kg intraperitoneal; confounded by learning effects
C57BL/6J mice = assay: Open field locomotion in mice; type: in vivo, mouse
5-HT2A = 5-HT2A (Homo sapiens, UniProt P28223); assay: Calcium flux assay; type: cell-based
Chain of 5-HT2A (P28223 whole entry): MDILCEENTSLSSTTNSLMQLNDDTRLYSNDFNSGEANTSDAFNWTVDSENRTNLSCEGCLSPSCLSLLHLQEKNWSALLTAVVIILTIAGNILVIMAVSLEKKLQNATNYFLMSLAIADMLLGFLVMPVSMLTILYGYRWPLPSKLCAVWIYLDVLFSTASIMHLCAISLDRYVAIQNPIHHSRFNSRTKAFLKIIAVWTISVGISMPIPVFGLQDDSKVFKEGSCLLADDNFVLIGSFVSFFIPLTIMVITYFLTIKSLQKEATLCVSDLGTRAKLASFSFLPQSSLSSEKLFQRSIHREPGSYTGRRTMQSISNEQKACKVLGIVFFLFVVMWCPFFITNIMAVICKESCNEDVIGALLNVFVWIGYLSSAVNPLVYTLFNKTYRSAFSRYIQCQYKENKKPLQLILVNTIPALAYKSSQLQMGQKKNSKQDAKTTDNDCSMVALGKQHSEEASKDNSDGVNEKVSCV
Description: (§4) Therefore, an orthogonal assay measuring calcium flux was also performed for the 5-HT2 receptors (Klein et al., 2020).

[3] = tested on: auxilin knockout (KO) mice; assay: Balance beam test in auxilin KO mouse model of Parkinson's Disease; type: in vivo; conditions: Aux-KO mice 9-12 months; 10 mg/kg intraperitoneal; 15 to 30 minutes after treatment
Source text: as §1

5-HT2C receptor = molecular target: T1, 5-HT2C receptor (Homo sapiens, UniProt P28335); assay: Calcium flux assay; type: cell-based; conditions: read-out: Emax relative to 5-HT, calcium flux
T1 sequence (P28335 33-458): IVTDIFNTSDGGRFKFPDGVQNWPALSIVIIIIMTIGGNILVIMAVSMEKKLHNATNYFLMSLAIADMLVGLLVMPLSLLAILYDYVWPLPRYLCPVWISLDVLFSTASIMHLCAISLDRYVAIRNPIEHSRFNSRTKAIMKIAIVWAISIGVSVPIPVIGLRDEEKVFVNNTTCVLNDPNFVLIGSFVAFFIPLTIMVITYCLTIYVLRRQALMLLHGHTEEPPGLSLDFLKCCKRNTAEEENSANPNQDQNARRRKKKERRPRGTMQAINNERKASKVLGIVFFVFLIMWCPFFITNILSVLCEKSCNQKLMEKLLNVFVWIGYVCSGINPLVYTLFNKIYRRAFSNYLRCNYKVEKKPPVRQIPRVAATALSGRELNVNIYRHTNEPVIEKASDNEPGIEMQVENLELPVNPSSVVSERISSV
Description: as §4

Glucocorticoid = molecular target: T2, Glucocorticoid (Homo sapiens, UniProt P04150); assay: SafetyScreen44 232030; type: binding; conditions: 10 μM; [3H]Dexamethasone; recombinant
T2 construct: Eurofins-Panlabs (contract screen) 232030
T2 sequence (P04150 whole entry): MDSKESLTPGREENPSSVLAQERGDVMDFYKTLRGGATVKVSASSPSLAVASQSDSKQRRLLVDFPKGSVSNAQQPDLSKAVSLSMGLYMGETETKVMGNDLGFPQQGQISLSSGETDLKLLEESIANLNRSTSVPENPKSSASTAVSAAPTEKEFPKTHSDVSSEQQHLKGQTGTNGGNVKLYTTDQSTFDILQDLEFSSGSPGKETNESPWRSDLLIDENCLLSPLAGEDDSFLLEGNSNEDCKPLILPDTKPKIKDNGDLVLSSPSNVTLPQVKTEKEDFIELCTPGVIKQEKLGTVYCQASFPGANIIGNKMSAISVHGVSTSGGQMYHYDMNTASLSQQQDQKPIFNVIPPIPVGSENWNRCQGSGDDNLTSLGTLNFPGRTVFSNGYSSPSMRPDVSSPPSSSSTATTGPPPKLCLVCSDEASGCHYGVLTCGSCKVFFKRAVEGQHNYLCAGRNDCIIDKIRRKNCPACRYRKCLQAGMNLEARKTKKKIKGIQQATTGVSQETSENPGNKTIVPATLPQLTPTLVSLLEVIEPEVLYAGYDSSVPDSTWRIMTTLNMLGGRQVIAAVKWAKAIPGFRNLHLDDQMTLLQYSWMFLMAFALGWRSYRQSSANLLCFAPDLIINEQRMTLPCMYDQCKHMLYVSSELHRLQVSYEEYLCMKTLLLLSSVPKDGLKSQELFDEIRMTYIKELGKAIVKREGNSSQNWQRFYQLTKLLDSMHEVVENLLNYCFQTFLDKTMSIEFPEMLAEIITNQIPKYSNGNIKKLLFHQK
Description: (§2) A broad screen of 44 molecular targets (SafetyScreen44, Eurofins-Panlabs) for Ariadne were performed, which includes G protein-coupled receptors, steroid nuclear receptors, ion channels, neurotransmitter transporters, and metabolic and signaling enzymes. Only two molecular targets, 5-HT2A and 5-HT2B receptors, emerged above the positive hit threshold, defined as 50% displacement of standard radioligands by 10 uM concentration of Ariadne (FIG. 1b, and Table 1).
(§3) For species, “H”=human, “R”=rat. Test compound screened at all targets at concentration of 10 μM.

hDAT = hDAT (Homo sapiens, UniProt Q01959); assay: DAT fluorescence uptake inhibition; type: cell-based
Chain of hDAT (Q01959 whole entry): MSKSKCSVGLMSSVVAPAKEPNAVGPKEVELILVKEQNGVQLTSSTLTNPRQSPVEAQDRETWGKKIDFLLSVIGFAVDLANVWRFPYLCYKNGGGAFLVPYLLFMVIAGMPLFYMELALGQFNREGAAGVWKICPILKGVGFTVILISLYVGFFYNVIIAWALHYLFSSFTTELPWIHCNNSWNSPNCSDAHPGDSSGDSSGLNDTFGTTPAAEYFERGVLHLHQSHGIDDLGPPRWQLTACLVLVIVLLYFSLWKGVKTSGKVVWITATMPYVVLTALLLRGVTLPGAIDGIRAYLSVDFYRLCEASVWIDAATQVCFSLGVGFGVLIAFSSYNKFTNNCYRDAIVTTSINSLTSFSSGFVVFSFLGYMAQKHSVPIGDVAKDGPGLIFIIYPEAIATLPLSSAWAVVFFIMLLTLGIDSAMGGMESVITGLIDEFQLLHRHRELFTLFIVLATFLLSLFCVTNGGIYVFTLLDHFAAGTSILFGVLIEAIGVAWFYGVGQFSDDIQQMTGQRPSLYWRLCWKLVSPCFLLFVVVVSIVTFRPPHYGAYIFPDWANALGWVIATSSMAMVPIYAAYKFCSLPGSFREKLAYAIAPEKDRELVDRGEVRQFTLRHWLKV

Cannabinoid CB2 = molecular target: T3, Cannabinoid CB2 (Homo sapiens, UniProt P34972); assay: SafetyScreen44 217100; type: binding; conditions: 10 μM; [3H]WIN-55, 212-2; recombinant
T3 construct: Eurofins-Panlabs (contract screen) 217100
T3 sequence (P34972 whole entry): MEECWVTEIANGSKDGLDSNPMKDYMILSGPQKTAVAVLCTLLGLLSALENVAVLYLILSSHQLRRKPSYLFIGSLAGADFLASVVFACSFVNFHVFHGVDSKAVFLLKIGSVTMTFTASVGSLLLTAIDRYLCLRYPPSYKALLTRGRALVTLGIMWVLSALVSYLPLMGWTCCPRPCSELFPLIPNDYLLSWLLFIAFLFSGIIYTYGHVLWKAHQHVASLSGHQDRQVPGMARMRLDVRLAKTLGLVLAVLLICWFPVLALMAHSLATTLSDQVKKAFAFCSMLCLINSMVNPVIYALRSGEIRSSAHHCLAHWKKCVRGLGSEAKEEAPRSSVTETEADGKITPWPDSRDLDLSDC
Description: as §2, §3

[4] = molecular target: T4, Cholecystokinin CCK1 (CCKA) (Homo sapiens, UniProt P32238); assay: SafetyScreen44 218030; type: binding; conditions: 10 μM; [125I]CCK-8; recombinant
T4 construct: Eurofins-Panlabs (contract screen) 218030
T4 sequence (P32238 whole entry): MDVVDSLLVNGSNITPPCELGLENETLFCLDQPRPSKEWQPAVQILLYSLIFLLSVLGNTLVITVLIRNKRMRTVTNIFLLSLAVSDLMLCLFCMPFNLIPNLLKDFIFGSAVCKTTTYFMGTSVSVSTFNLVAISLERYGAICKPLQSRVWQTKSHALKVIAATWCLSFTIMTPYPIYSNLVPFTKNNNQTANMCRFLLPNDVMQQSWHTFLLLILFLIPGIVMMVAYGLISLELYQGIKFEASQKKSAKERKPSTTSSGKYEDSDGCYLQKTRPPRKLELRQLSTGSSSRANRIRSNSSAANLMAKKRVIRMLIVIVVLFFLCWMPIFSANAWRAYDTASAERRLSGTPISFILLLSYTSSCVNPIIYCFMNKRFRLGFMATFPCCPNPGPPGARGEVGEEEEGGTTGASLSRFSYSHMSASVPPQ
Description: as §2, §3

Phosphodiesterase PDE3A = molecular target: T5, Phosphodiesterase PDE3A (Homo sapiens, UniProt Q14432); assay: SafetyScreen44 152300; type: biochemical; conditions: 10 μM; FAM-cAMP; recombinant
T5 construct: Eurofins-Panlabs (contract screen) 152300
T5 sequence (Q14432 whole entry): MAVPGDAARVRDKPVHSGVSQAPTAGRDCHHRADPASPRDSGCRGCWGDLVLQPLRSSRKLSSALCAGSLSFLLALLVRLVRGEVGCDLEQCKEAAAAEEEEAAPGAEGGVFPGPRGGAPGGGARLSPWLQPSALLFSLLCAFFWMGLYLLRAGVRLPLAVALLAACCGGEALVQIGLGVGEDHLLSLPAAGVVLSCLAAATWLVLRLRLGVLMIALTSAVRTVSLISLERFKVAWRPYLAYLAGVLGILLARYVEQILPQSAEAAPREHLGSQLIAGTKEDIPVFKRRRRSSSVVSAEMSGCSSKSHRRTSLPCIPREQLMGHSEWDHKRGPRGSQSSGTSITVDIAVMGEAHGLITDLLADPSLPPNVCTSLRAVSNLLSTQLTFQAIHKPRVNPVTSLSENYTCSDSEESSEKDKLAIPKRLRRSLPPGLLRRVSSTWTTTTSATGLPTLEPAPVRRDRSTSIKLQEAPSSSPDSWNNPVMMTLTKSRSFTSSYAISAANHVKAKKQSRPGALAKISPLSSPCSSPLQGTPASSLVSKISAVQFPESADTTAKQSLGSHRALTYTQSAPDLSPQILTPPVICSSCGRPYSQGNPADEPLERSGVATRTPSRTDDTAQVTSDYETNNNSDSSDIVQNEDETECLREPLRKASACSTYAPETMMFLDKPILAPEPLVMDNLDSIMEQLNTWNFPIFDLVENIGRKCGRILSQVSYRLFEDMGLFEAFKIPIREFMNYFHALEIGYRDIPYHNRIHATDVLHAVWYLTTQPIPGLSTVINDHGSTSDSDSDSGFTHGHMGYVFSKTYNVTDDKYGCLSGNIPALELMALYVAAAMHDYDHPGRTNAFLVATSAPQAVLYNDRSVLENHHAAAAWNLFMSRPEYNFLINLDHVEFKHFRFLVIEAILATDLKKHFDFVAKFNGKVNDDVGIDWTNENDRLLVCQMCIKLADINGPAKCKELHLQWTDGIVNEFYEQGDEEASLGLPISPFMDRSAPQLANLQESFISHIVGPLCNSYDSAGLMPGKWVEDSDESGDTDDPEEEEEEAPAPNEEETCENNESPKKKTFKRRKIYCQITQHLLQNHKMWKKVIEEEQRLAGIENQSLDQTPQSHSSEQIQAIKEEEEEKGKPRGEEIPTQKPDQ
Description: as §2, §3

Muscarinic M3 = molecular target: T6, Muscarinic M3 (Homo sapiens, UniProt P20309); assay: SafetyScreen44 252810; type: binding; conditions: 10 μM; [3H]N-Methylscopolamine; recombinant
T6 construct: purchased Eurofins-Panlabs (contract screen SafetyScreen44) assay ID 252810
T6 sequence (P20309 whole entry): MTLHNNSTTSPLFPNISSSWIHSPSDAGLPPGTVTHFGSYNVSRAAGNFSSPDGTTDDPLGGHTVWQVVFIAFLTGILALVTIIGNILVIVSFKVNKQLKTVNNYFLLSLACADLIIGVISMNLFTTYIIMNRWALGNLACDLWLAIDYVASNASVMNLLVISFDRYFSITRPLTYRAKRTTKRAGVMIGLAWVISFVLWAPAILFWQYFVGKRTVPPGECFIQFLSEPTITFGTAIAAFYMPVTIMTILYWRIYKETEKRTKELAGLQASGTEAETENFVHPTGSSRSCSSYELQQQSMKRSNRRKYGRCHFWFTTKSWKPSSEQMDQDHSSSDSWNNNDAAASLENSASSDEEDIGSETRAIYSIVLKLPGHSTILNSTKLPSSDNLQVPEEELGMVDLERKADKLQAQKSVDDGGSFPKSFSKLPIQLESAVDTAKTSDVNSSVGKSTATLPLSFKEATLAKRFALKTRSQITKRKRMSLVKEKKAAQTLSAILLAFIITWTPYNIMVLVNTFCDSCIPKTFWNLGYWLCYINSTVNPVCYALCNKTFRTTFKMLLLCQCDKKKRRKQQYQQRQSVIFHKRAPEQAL
Description: as §2, §3

Phosphodiesterase PDE4D2 = molecular target: T7, Phosphodiesterase PDE4D2 (Homo sapiens, UniProt Q08499); assay: SafetyScreen44 154420; type: biochemical; conditions: 10 μM; FAM-cAMP; recombinant
T7 construct: Eurofins-Panlabs (contract screen) 154420
Description: as §2, §3

[5] = tested on: Calcium Channel L-Type, Dihydropyridine; assay: SafetyScreen44 214600; type: binding, rat; conditions: 10 μM; [3H]Nitrendipine; cerebral cortex
Description: as §2, §3

rats = conditions: rat, in vivo; cited from earlier work

Question: Which results are given for `CC[C@@H](N)Cc1cc(OC)c(C)cc1OC` [(R)-Ariadne]?
Answer: clasping duration [1]: down to zero; hindlimb clasping score [1]: down to zero; EC50 (5-HT1F receptor): ~5 µM; Emax (5-HT1F receptor): > 70%; overall locomotory deficits in the open field [2]: partially rescued; general locomotion in novel environment (C57BL/6J mice; 10 mg/kg, s.c. (peak HTR dose)): minor sedative effect; general locomotion in novel environment (C57BL/6J mice; 30 mg/kg): marked sedation; time in the center of the arena (C57BL/6J mice; open field): trend for spending less time in the center; EC50 (5-HT2A): 0.03 µM; Emax (5-HT2A; read-out: Emax relative to 5-HT, calcium flux): 96%; number of balance beam runs per minute [3]: significantly higher and comparable to WT mice; Emax (5-HT2C receptor): 60%

Question: Which “% Response” value (Glucocorticoid) does the source give for `CCC(N)Cc1cc(OC)c(C)cc1OC` (racemic) [Compound 32, 1-(2,5-dimethoxy-4-methylphenyl)butan-2-amine] here?
Answer: Its value is −5%.

Question: And the IC50 (hDAT)?
Answer: Its IC50 is over 50 µM.

Question: What about the “% Response” value (Cannabinoid CB2) of the same compound?
Answer: Its value is −7%.

Question: What about the “% Response” value [4] of the same compound?
Answer: The value was 3%.

Question: And the “% Response” value (Phosphodiesterase PDE3A)?
Answer: Its value is −4%.

Question: What about the “% Response” value (Muscarinic M3) of the same compound?
Answer: Its value is −11%.

Question: And the “% Response” value (Phosphodiesterase PDE4D2)?
Answer: Its value is −2%.

Question: What about the “% Response” value [5] of the same compound?
Answer: The value was −13%.

Question: What about the “substitution for MDMA stimulus” value (rats) of the same compound?
Answer: Its value is “full substitution”.

Question: And the “substitution in LSD trained animals” value (rats)?
Answer: The value was “substituted responding”.
